Assay results: the supplement of paper PMC10307832

Columns and labels:
Assay in all cases: relative viability (nuclei count vs DMSO), 5 days (fraction); higher = more cells survive
PAC-1 + Crizotinib = compound: C=CCc1cccc(/C=N/NC(=O)CN2CCN(Cc3ccccc3)CC2)c1O [PAC-1] + C[C@@H](Oc1cc(-c2cnn(C3CCNCC3)c2)cnc1N)c1c(Cl)ccc(F)c1Cl [Crizotinib] (partner 1 µM)
In short: (§1)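 Lung cancer cell lines in 1536-well plates got either a single drug or a fixed anchor-drug dose together with five library-drug doses (not always all listed) in √10 steps, by pin tool, on the day after seeding. Nuclei were counted after 5 days, and relative viability is the treated-to-vehicle ratio of nuclei counts. Values are medians of duplicate plates.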

Ibrutinib + Olaparib = compound: C=CC(=O)N1CCC[C@@H](n2nc(-c3ccc(Oc4ccccc4)cc3)c3c(N)ncnc32)C1 [Ibrutinib] + O=C(c1cc(Cc2n[nH]c(=O)c3ccccc23)ccc1F)N1CCN(C(=O)C2CC2)CC1 [Olaparib] (partner 8 µM)
In short: as §1

BMX-IN-1 + Pemetrexed = compound: C=CC(=O)Nc1cc(-n2c(=O)ccc3cnc4ccc(-c5ccc(NS(C)(=O)=O)cc5)cc4c32)ccc1C [BMX-IN-1] + Nc1nc2[nH]cc(CCc3ccc(C(=O)N[C@@H](CCC(=O)O)C(=O)O)cc3)c2c(=O)[nH]1 [Pemetrexed] (partner 0.2 µM)
In short: as §1

Ibrutinib + Decitabine = compound: C=CC(=O)N1CCC[C@@H](n2nc(-c3ccc(Oc4ccccc4)cc3)c3c(N)ncnc32)C1 [Ibrutinib] + Nc1ncn([C@H]2C[C@H](O)[C@@H](CO)O2)c(=O)n1 [Decitabine] (partner 2 µM)
In short: as §1

Cell Line: SK-MES-1
- relative viability (PAC-1 + Crizotinib; first compound 0.02 µM): 1.05
- relative viability (PAC-1 + Crizotinib; first compound 0.06325 µM): 1.01
- relative viability (PAC-1 + Crizotinib; first compound 0.2 µM): 1.01
- relative viability (PAC-1 + Crizotinib; first compound 2 µM): 1.01
- relative viability (Ibrutinib + Olaparib; first compound 0.005 µM): 0.748
- relative viability (Ibrutinib + Olaparib; first compound 0.01581 µM): 0.639
- relative viability (Ibrutinib + Olaparib; first compound 0.05 µM): 0.652
- relative viability (Ibrutinib + Olaparib; first compound 0.1581 µM): 0.879
- relative viability (Ibrutinib + Olaparib; first compound 0.5 µM): 0.461
- relative viability (BMX-IN-1 + Pemetrexed; first compound 0.02 µM): 1.11
- relative viability (BMX-IN-1 + Pemetrexed; first compound 0.2 µM): 1.11
- relative viability (BMX-IN-1 + Pemetrexed; first compound 0.6325 µM): 1.03
- relative viability (BMX-IN-1 + Pemetrexed; first compound 2 µM): 0.859
- relative viability (Ibrutinib + Decitabine; first compound 0.005 µM): 0.39
- relative viability (Ibrutinib + Decitabine; first compound 0.01581 µM): 0.359
- relative viability (Ibrutinib + Decitabine; first compound 0.05 µM): 0.335
- relative viability (Ibrutinib + Decitabine; first compound 0.1581 µM): 0.364
- relative viability (Ibrutinib + Decitabine; first compound 0.5 µM): 0.359
